SMILES | melting point [°C]
COC(=O)c1ccc(OC)c(Oc2ccccc2)c1 | 61 to 63
COc1cc(-c2nc3ccc(OCCCCl)cc3n2Cc2ccccc2)cc(OC)c1OC | 118
CCCCNc1cc(C(=O)OC)cc(S(N)(=O)=O)c1Oc1ccccc1 | 146
COc1ccc(-n2c(-c3ccccc3)cnc2S)cc1 | 167
CCCCCCCCCCCCCCCCNc1ccc(COC(C)=O)cc1 | 43 to 45
Cc1cc(N)ccc1N1CCOCC1 | 83 to 84
CN1Cc2ccccc2C(=O)c2cc(CC(=O)NO)ccc21 | 137 to 141
CCCn1c(=O)c2[nH]c(/C=C/c3ccc(OC)c(Br)c3)nc2n(CCC)c1=O | 280 to 281
CCON=C(CC)C1=C(O)CC(c2ccc3c(c2)N(CC#N)C(=O)CO3)CC1=O (stereo unspecified) | 156 to 159
CCCCCC[Si]1(CCCCCC)C([Si](C)(C)C)=C(c2ccccc2)C(c2ccccc2)=C1[Si](C)(C)C | 81
O=C1CCC(c2ccccc2F)c2ccccc2N1 (stereo unspecified) | 210 to 212
C(=Nc1c2c(nc3ccccc13)CCCC2)c1cccc2ccccc12 | 229 to 231
O=C(O)CNC(=O)CSCCCCc1ccc2c(c1)OCO2 | 95 to 96
CCSc1nc(N2CCNCC2)nc2cccnc12 | 98 to 101
COc1c(-c2cc3c(s2)C(O)CCC3)ccc2c(=O)c(C(=O)O)cn(C3CC3)c12 (stereo unspecified) | 238 to 240
O=S(=O)(Cc1ccccc1)Nc1ncc(-c2ccccc2)nc1Cc1ccccc1 | 207 to 208
Cc1oc(-c2ccccc2)nc1COc1ccc(COc2ccc(CCC(=O)O)cc2)cc1 | 177 to 178
CCCn1nc(SCCCCC(=O)O)c(C(=O)O)c1Cc1cc2c(cc1Cl)OCO2 | 185
OC(CNC1=NCCN1)c1cccc(Cl)c1 (stereo unspecified) | 108
CCOCc1nc2c(N)nc3cc(-c4cncc(OC)c4)ccc3c2n1CC(C)(C)OCCS(C)(=O)=O | 186 to 188
O=c1c2c[nH]c3ccccc3c-2nn1-c1cnc2ccccc2c1 | > 350
COC(=O)c1ccc(-c2nc(NCc3ccc(OC)c(Cl)c3)c3c(n2)sc2ccccc23)cc1 | 203 to 204
Cc1ccc(-c2ccc3c(c2)C=C(C(=O)Nc2ccc(CN4CCCCC4)cc2)CCS3)cc1 | 203 to 204

SMILES | melting point [°C]
Nc1nc(Cl)c2ncn([C@@H]3C[C@H](O)[C@@](O)(CO)C3)c2n1 | 217 to 219
CC(C)c1csc(/C=C/c2cccc(NC(=O)Cc3ccccc3C(=O)O)c2)n1 | 203 to 204
NC(=O)C1(CCCNC=O)c2ccccc2-c2ccccc21 | 160 to 161
COc1cccc2c1CCCC2N1CCN(C)CC1 (stereo unspecified) | 69 to 71
NC(=O)CN1C(=O)[C@H](NC(=O)c2cc3ccccc3[nH]2)[C@H](c2ccccc2)Sc2cc(Cl)ccc21 (relative stereo) | 174 to 178
CC(C)(C)CC(=O)Nc1ccc2ncn3c(=O)c(C(=O)O)cnc3c2c1 | 304 to 306
COC(=O)c1ccc(N(C)C)cc1C(=O)OC | 54 to 57
Cc1ccc(-c2c(C#N)nn(-c3c(Cl)cc(C(F)(F)F)cc3Cl)c2N)cc1 | 243 to 244
O=C(NCCCN1CCC(c2ccccn2)CC1)N1C(=O)OCC1c1ccc(F)c(F)c1 (stereo unspecified) | 142 to 144
O=C1NCN(c2ccccc2)C12CCN(C[C@@H]1CCc3ccc(Cl)cc3[C@H]1O)CC2 (relative stereo) | 248 to 249
Cc1cccc(C(=O)NCN2CCN(c3cccc(C#N)c3)CC2)c1 | 59 to 61
CN1CCN(CCC#Cc2csc3ncc(C#N)c(Nc4ccc5[nH]ccc5c4)c23)CC1 | 184 to 186
CCCCc1ncc(/C=C(\C)C(=O)O)n1Cc1ccccc1Cl | 228 to 229
CCCCN(Cc1ccccc1)C(=O)Nc1cccc(Cl)c1 | 69 to 70
COc1cccc(C2Cc3ccccc3C2=O)c1 (stereo unspecified) | 144 to 146
NC(=O)c1ccccc1Nc1ccncc1 | 206 to 209
COc1ccccc1CN1N=C(c2ccc(OC)c(OC)c2)[C@@H]2CCCC[C@@H]2C1=O (relative stereo) | 96 to 99
CSc1ccc(C(=O)C(=C(N)C(F)(F)F)c2ccc(F)cc2)cc1 | 122 to 124
CCSc1nc(C(C)(C)C)c[nH]1 | 116 to 120
NC(Cc1cc(O)c2c(c1)C(=O)c1cccc(O)c1C2=O)C(=O)O (stereo unspecified) | 210 to 212
Nc1ccc(C2=NNC(=O)C3CC23)cc1 (stereo unspecified) | 230 to 231
CC(C)n1nc(-c2sc(NC(=O)c3ccccc3C(F)(F)F)nc2-c2ccccc2)ccc1=O | 219 to 220

Next, values leading:

melting point [°C] | SMILES
43 | CCCC(O)(C=Cc1ccccc1)CC(=O)OC (stereo unspecified)
161 to 162 | COc1ccnc(CCc2nc3cc(-c4ccc(OCc5ccccc5)cc4)cnc3[nH]2)c1
193 to 194 | O=C(c1ccc2nonc2c1)N1Cc2cccnc2Nc2ccccc21
183 | Nc1cccc2c1C1CCCCN1C2=O (stereo unspecified)
> 247 | Cc1cccc2c3c([nH]c12)CCCC3=O
120 to 122 | CNC(=O)CC=C(CC(C)C)C(=O)O
260 | CCCC(=O)Nc1n[nH]c2c([N+](=O)[O-])c(Br)c([N+](=O)[O-])cc12
68 to 70 | Cc1csc(C)c1N(N)C(=O)CN
169 to 172 | O=C(NCC12CC3CC(CC(C3)C1)C2)c1cc(-c2ncccc2C(=O)O)ccc1Cl
79 to 81 | CN(C)C=Nc1c(Cl)cc(N=Cc2ccccc2F)cc1Cl
119 | CC(C)c1c(Cl)nc2ncnn2c1Cl
161 to 164 | COc1ccc(Cl)cc1C1OC(=O)N(C(C)=O)C1=O (stereo unspecified)
149 to 150 | CC(=O)NC1=NN(c2ccccc2)CC1C (stereo unspecified)
226 | CCOC(=O)c1cn(C)c2cnc3cc(F)c(N4CCN(c5cccc(OC)c5)C(C)C4)cc3c2c1=O (stereo unspecified)
250 to 251 | CS(=O)(=O)CCN1CCC2(CC1)CC(=O)c1cc(NS(C)(=O)=O)ccc1O2
227 to 228 | NC(N)=Nc1nc(-c2cccc(CNC(=O)C3CCCNC3)n2)cs1 (stereo unspecified)
90 | O=C(O)Cc1cccc(CCNC(=O)C2Cc3ccccc3N2S(=O)(=O)c2ccc(-c3cccc(C(F)(F)F)c3)cc2)c1 (stereo unspecified)
68 to 69 | CCOC(=O)N1CCC(N)(CC#N)CC1
119 to 121 | CC(C)(c1ccccc1)c1ccc(O)c(-n2nc3ccccc3n2)c1

melting point [°C] | SMILES
137 to 139 | CC(=CC(CNC(=O)c1cccnc1)=NO)C(C)[N+](=O)[O-] (stereo unspecified)
41 to 43 | O=C(NCCSCc1cccc(Cl)c1)c1c(F)cccc1F
198 to 200 | N#Cc1cnc2ccsc2c1Nc1ccc(Cl)cc1Cl
196 to 198 | C[C@]12CCC(=O)N[C@@H]1CCc1cc(Sc3ccccc3F)ccc12
104 to 105 | CC(=O)Nc1nc(CCc2ccc(N)cc2)c(C(=O)Nc2ccccc2)s1
103 to 107 | Cc1ccc(Sc2ncnc3c(C)csc23)cc1
92 to 94 | Clc1ccc(OCc2ccc3ccccc3n2)cc1
194 to 195 | COC(=O)c1ccc2c(c1)ncn2N
100 to 102 | COc1cnnc(Oc2ccnc(OC(C)C(F)(F)F)c2)c1 (stereo unspecified)
148 to 150 | Cc1nc2ccccc2c(=O)n1CCCOS(C)(=O)=O
274 to 277 | Cc1c(F)c(F)cc2c(=O)c(C(=O)O)cn(-c3nc(N)c(F)cc3F)c12
226 to 227 | Cn1ncc(/C=C/C(=O)Nc2ccc(Cc3nc(C(=O)O)cs3)cc2)c1-c1ccc(F)cc1
133 to 135 | CCC(=O)OC(CC)c1ccc(Cl)c2nc3n(c12)CCCN3c1ccc(Cl)cc1Cl (stereo unspecified)
168 to 170 | CC(=O)N1c2c(ccn3c(C)c(C)nc23)C(=O)[C@H](OC(=O)C(C)(C)C)[C@H]1c1ccccc1
113 to 131 | COc1cc2c(cc1Nc1ncc(Cl)c(Nc3ccc(C(N)=O)cc3OC)n1)CCN(CC(=O)N(C)C)CC2
97 to 101 | Nc1ccc(CCc2ccc(OCc3ccccc3)c(OCc3ccccc3)c2)cc1
250 to 255 | CC(C)c1nc2c([nH]1)C(=O)N1CCN=C1N2Cc1ccccc1Cl
100 | O=C(O)COc1nnc(C(Cl)(Cl)Cl)s1
29 | CCCCCCCCCCCCCCCCCCSCC(CO)C(C)C (stereo unspecified)

melting point [°C] | SMILES
229 to 230 | CCn1cc2c(n1)c(N)nc1cc(OCc3ccccc3)ccc12
187 to 190 | O=c1ccnc(NCCN(Cc2ccccc2)c2ccccn2)[nH]1
121 to 122 | COc1cc2nc(SCc3nccc(N(C)C)c3Cl)[nH]c2cc1OC
195 | N=C(Cc1ccccc1)N1CC2C(=O)CCC(c3ccccc3)(c3ccccc3)C2C1 (stereo unspecified)
94 to 96 | O=C1N(N2CCCCC2)c2ccccc2C1(Cc1ccccc1)Cc1ccccc1
40 to 41 | CC(=O)NCCCc1cccc2c1CC(CCCCc1ccccc1)O2 (stereo unspecified)
135 to 137 | CCCCCCCC(=O)Nc1cc(Cc2c(Cl)cccc2Cl)nc(Nc2ccc(C#N)cc2)n1
112 to 113 | Cc1ccc(-c2coc3c(C)c(C)cc(C)c23)cc1
42 to 44 | CCC(=C(c1ccccc1)c1ccc(C2CC2C(=O)N(CC)CC)cc1)c1ccccc1 (stereo unspecified)
174 to 176 | CC1NC(=O)N(c2ccc(F)c(Cl)c2)C1=O (stereo unspecified)
161 | CCOc1ccc2nc(CO)n(C)c2n1
172 | O=C(O)COc1nn(-c2ccccc2)cc1-c1ccccc1
193 to 194 | O=C1NC(=O)c2c1c(-c1ccccc1)cc1[nH]c3ccc(OP(=O)(OCc4ccccc4)OCc4ccccc4)cc3c21
107 to 108 | CCCc1c(OCCCOc2cccc3c2CCCC3)ccc2c1OC(CCC=O)(CCC=O)CC2=O
94 to 102 | CN1CCC(Nc2nc3ccccc3n2Cc2ccccc2)CC1
200 to 201 | CC(C)Cn1c(C(=O)O)c(-c2ccc(Cl)cc2)c2cc(OCc3ccccc3)ccc2c1=O
136 to 137 | Brc1ccc2cc(N(c3ccccc3)c3ccccc3)ccc2c1
238 to 240 | CN(C)C=Cc1[nH]c(=O)ccc1C(=O)c1ccco1
